Experimental findings from US12427144B2, “Compounds and methods for the targeted degradation of androgen receptor” (Arvinas Operations, Inc., priority 2019, dated 2025) are described below.

The test concerns the target T1, Androgen Receptor (AR) (Homo sapiens, UniProt P10275).
T1 construct: endogenous in cells; host or cells: VCaP
T1 sequence (P10275 1-920): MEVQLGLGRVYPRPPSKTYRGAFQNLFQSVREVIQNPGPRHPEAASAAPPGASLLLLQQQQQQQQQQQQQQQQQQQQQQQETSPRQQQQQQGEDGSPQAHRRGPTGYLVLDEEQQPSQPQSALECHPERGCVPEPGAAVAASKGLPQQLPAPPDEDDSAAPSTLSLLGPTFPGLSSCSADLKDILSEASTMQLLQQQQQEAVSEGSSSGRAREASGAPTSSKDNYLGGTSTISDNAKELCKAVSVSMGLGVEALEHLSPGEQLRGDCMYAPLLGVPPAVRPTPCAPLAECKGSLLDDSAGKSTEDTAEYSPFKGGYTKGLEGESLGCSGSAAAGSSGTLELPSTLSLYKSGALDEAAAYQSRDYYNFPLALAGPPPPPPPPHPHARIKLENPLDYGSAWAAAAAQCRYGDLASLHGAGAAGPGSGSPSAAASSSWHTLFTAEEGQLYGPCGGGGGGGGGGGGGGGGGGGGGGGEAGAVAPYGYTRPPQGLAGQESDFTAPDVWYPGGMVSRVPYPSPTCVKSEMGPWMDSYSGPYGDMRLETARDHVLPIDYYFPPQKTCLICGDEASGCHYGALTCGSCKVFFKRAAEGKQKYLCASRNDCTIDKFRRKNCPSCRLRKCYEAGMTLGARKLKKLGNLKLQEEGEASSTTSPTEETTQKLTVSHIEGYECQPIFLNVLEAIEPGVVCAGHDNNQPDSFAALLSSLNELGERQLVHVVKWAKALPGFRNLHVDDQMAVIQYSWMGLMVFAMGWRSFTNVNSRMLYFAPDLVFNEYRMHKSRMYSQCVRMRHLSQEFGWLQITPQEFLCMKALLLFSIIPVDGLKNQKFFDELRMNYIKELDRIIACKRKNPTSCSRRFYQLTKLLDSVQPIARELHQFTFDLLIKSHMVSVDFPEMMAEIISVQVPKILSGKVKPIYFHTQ
In words: AR immunofluorescence staining, high content imager, VCaP cells. In kind it is cell-based. Particulars: for DC50: AR degradation by immunofluorescence; for Dmax: maximal AR degradation. The method, then: AR Immunofluorescence Staining of Cells for the High Content Imager was performed as follows: Following treatment of the cells with compound (using the central 60 wells of a 96-well plate), media was removed by aspiration, followed by addition of 50 μL per well of 4% paraformaldehyde (PFA) in PBS supplemented with 2 mM MgCl2 and 2 mM CaCl2. Fixed cells were incubated at RT for 15 minutes. For particularly low adherence cell lines (e.g., VCaP), a 2× solution of 8% PFA was added directly to wells instead. Cells were washed once with 200 μL PBS/well. To permeabilize cells 50 μL/well of 0.1% Triton X-100 in PBS was added and incubated for 5 minutes. Cells were washed once with 200 μL PBSS/well. 100 μL/well of Licor Odyssey Blocking Buffer was added for 1 hour at 20° C. Wells were aspirated and AR antibody (1:1000 in Licor Odyssey blocking buffer; 50 μL/well; CST 5153s) was added. Plates were incubated overnight at 4° C. Plates were washed 3 times with 200 EL PBS/well. The appropriate secondary antibody was added (50 μL/well; diluted in Licor Odyssey blocking buffer) and incubated for 1 hour at RT in the dark as prepared below using Anti-rabbit FITC (1:5000; […]) and Phalloidin-Alexafluor 648 (1:500; […]). Cells were washed once with 200 μL PBS/well. 50 μL DAPI or Hoechst 33342 diluted 1:1000 in Licor Odyssey blocking buffer was added to the wells. Cells were washed 3 times with 200 μL PBS/well. The plates were covered with a clear plastic sealer and refrigerated in the dark until ready to analyze. The cells were analyzed using a Molecular Devices IXM high content imager and analyzed using Molecular Devices metaXpress software suite.

Turning to `Cc1cc(O[C@H]2C(C)(C)[C@H](NC(=O)c3ccc(N4CCC(CC5CCN(C67CC(C(=O)NC8CCC(=O)NC8=O)(C6)C7)CC5)CC4)cc3)C2(C)C)cc(C)c1C#N` (mixture of isomers) [Compound 70, rac-N-(2,6-dioxopiperidin-3-yl)-3-(4-{[1-(4-{[(1r,3r)-3-(4-cyano-3,5-dimethylphenoxy)-2,2,4,4-tetramethylcyclobutyl]carbamoyl}phenyl)piperidin-4-yl]methyl}piperidin-1-yl)bicyclo[1.1.1]pentane-1-carboxamide], the DC50 was less than 1 nM and the Dmax was less than 50%.
Taken in the same sequence, the figures for `Cc1cc(O[C@H]2C(C)(C)[C@H](NC(=O)c3ccc(N4CCO[C@H](CN5CCN(c6ccc(C(=O)N[C@@H]7CCC(=O)NC7=O)c(F)c6)CC5)C4)cc3)C2(C)C)cc(C)c1C#N` (single isomer, unassigned) [Compound 49] were less than 1 nM and no less than 70%.
Taken in the same sequence, the figures for `COc1cc(O[C@H]2C(C)(C)[C@H](NC(=O)c3ccc(N4CCC(CN5CCN(c6ccc(C(=O)NC7CCC(=O)NC7=O)c(F)c6)CC5)CC4)cc3)C2(C)C)ccc1C#N` (stereo partly drawn) [Compound 1, 4-(4-((1-(4-(((1R,3R)-3-(4-cyano-3-methoxyphenoxy)-2,2,4,4-tetramethylcyclobutyl)carbamoyl)phenyl)piperidin-4-yl)methyl)piperazin-1-yl)-N-(2,6-dioxopiperidin-3-yl)-2-fluorobenzamide] were less than 1 nM and no less than 70%.
With `COc1cc(O[C@H]2C(C)(C)[C@H](NC(=O)c3ccc(N4CCC(CN5CCN(c6ccc(C(=O)N[C@@H]7CCC(=O)NC7=O)c(F)c6)CC5)CC4)cc3)C2(C)C)ccc1C#N` [Compound 14, 4-(4-((1-(4-(((1R,3R)-3-(4-cyano-3-methoxyphenoxy)-2,2,4,4-tetramethylcyclobutyl)carbamoyl)phenyl)piperidin-4-yl)methyl)piperazin-1-yl)-N—((R)-2,6-dioxopiperidin-3-yl)-2-fluorobenzamide], the DC50 lay in the range of 1 to 10 nM and the Dmax was less than 50%.
`CC1(C)[C@H](NC(=O)c2ccc(N3CCC(CN4CCN(c5ccc(C(=O)NC6CCC(=O)NC6=O)c(F)c5)CC4)CC3)nn2)C(C)(C)[C@H]1Oc1ccc(C#N)c(Cl)c1` (stereo partly drawn) [Compound 17, N-((1R,3R)-3-(3-chloro-4-cyanophenoxy)-2,2,4,4-tetramethylcyclobutyl)-6-(4-((4-(4-((2,6-dioxopiperidin-3-yl)carbamoyl)-3-fluorophenyl)piperazin-1-yl)methyl)piperidin-1-yl)pyridazine-3-carboxamide] registered a DC50 of less than 1 nM and a Dmax of 50 to 70%.
For `CC1(C)[C@H](NC(=O)c2cnc(N3CCC(CN4CCN(c5ccc(C(=O)NC6CCC(=O)NC6=O)c(F)c5)CC4)CC3)cn2)C(C)(C)[C@H]1Oc1ccc(C#N)c(Cl)c1` (stereo partly drawn) [Compound 18, N-((1R,3R)-3-(3-chloro-4-cyanophenoxy)-2,2,4,4-tetramethylcyclobutyl)-5-(4-((4-(4-((2,6-dioxopiperidin-3-yl)carbamoyl)-3-fluorophenyl)piperazin-1-yl)methyl)piperidin-1-yl)pyrazine-2-carboxamide], the DC50 lay in the range of 1 to 10 nM and the Dmax lay in the range of 50 to 70%.
The like results for `CC1(C)[C@H](NC(=O)c2ccc(N3CCC(CN4CCN(c5ccc(C(=O)NC6CCC(=O)NC6=O)c(F)c5)CC4)CC3)cc2)C(C)(C)[C@H]1Oc1ccc(C#N)c(Cl)c1` (stereo partly drawn) [Compound 19, 4-(4-((1-(4-(((1R,3R)-3-(3-chloro-4-cyanophenoxy)-2,2,4,4-tetramethylcyclobutyl)carbamoyl)phenyl)piperidin-4-yl)methyl)piperazin-1-yl)-N-(2,6-dioxopiperidin-3-yl)-2-fluorobenzamide] were, in that order, less than 1 nM and no less than 70%.
The like results for `Cc1cc(O[C@H]2C(C)(C)[C@H](NC(=O)c3ccc(N4CCC(CN5CCN(c6ccc(C(=O)NC7CCC(=O)NC7=O)c(F)c6)CC5)CC4)cc3)C2(C)C)cc(C)c1C#N` (stereo partly drawn) [Compound 20, 4-(4-((1-(4-(((1R,3R)-3-(4-cyano-3,5-dimethylphenoxy)-2,2,4,4-tetramethylcyclobutyl)carbamoyl)phenyl)piperidin-4-yl)methyl)piperazin-1-yl)-N-(2,6-dioxopiperidin-3-yl)-2-fluorobenzamide] were, in that order, less than 1 nM and no less than 70%.
Taken in the same sequence, the figures for `COc1cc(O[C@H]2C(C)(C)[C@H](NC(=O)c3ccc(N4CCC(CN5CCN(c6ccc(C(=O)N[C@H]7CCC(=O)NC7=O)c(F)c6)CC5)CC4)cc3)C2(C)C)ccc1C#N` [Compound 21, 4-(4-((1-(4-(((1R,3R)-3-(4-cyano-3-methoxyphenoxy)-2,2,4,4-tetramethylcyclobutyl)carbamoyl)phenyl)piperidin-4-yl)methyl)piperazin-1-yl)-N—((S)-2,6-dioxopiperidin-3-yl)-2-fluorobenzamide] were less than 1 nM and no less than 70%.
`N#Cc1ccc(O[C@H]2CC[C@H](NC(=O)c3ccc(N4CCC(CN5CCN(c6ccc(C(=O)NC7CCC(=O)NC7=O)nc6)CC5)CC4)nn3)CC2)cc1Cl` (stereo partly drawn) [Compound 22, N-((1R,4R)-4-(3-chloro-4-cyanophenoxy)cyclohexyl)-6-(4-((4-(6-((2,6-dioxopiperidin-3-yl)carbamoyl)pyridin-3-yl)piperazin-1-yl)methyl)piperidin-1-yl)pyridazine-3-carboxamide] showed a DC50 of less than 1 nM and a Dmax of no less than 70%.
The compound `N#Cc1ccc(O[C@H]2CC[C@H](NC(=O)c3ccc(N4CCC(CN5CCN(c6ccc(C(=O)NC7CCC(=O)NC7=O)cc6)CC5)CC4)nn3)CC2)cc1Cl` (stereo partly shown) [Compound 23, N-[4-(3-chloro-4-cyano-phenoxy)cyclohexyl]-6-[4-[[4-[4-[(2,6-dioxo-3-piperidyl)carbamoyl]phenyl]piperazin-1-yl]methyl]-1-piperidyl]pyridazine-3-carboxamide] came in with a DC50 of less than 1 nM and a Dmax of no less than 70%.
The like results for `CC(C)N(CC1CCN(c2cnc(C(=O)N[C@H]3CC[C@H](Oc4ccc(C#N)c(Cl)c4)CC3)cn2)CC1)[C@H]1C[C@H](Oc2ccc(C(=O)NC3CCC(=O)NC3=O)nc2)C1` (stereo partly shown) [Compound 24, N-[4-(3-chloro-4-cyano-phenoxy)cyclohexyl]-5-[4-[[[3-[[6-[(2,6-dioxo-3-piperidyl)carbamoyl]-3-pyridyl]oxy]cyclobutyl]-isopropyl-amino]methyl]-1-piperidyl]pyrazine-2-carboxamide] were, in that order, less than 1 nM and no less than 70%.
The like results for `CC(C)N(CC1CCN(c2cnc(C(=O)N[C@H]3CC[C@H](Oc4ccc(C#N)c(Cl)c4)CC3)cn2)CC1)[C@H]1C[C@H](Oc2ccc(C(=O)NC3CCC(=O)NC3=O)c(F)c2)C1` (stereo partly drawn) [Compound 25, N-((1R,4R)-4-(3-chloro-4-cyanophenoxy)cyclohexyl)-5-(4-((((1R,3R)-3-(4-((2,6-dioxopiperidin-3-yl)carbamoyl)-3-fluorophenoxy)cyclobutyl)(isopropyl)amino)methyl)piperidin-1-yl)pyrazine-2-carboxamide] were, in that order, less than 1 nM and 50 to 70%.
Taken in the same sequence, the figures for `N#Cc1ccc(O[C@H]2CC[C@H](NC(=O)c3ccc(N4CCC(CN5CCN(c6ccc(C(=O)NC7CCC(=O)NC7=O)c(F)c6)CC5)CC4)nn3)CC2)cc1Cl` (stereo partly drawn) [Compound 26, N-((1R,4R)-4-(3-chloro-4-cyanophenoxy)cyclohexyl)-6-(4-((4-(4-((2,6-dioxopiperidin-3-yl)carbamoyl)-3-fluorophenyl)piperazin-1-yl)methyl)piperidin-1-yl)pyridazine-3-carboxamide] were less than 1 nM and no less than 70%.

What is called DC50 is the midpoint of the concentration-degradation curve. A high value points to a less potent degrader. By Dmax is commonly meant the greatest extent of degradation seen. A higher Dmax goes with deep degradation.
